Here are results for 18 compounds from patent publication US11028095B2, “Spiro-lactam and bis-spiro-lactam NMDA receptor modulators and uses thereof” (Aptinyx Inc., priority 2016, dated 2021).

Molecules are shown by their SMILES. Read-outs that look alike come from different tables or passages of the source. Bounds are passed on as bounds.

Assay type in all cases: biochemical
Assay [1] deals with T1, NMDAR2B expressing HEK cell membranes (Homo sapiens, UniProt Q05586+Q13224).
T1 construct: expressed in transfected cells; host or cells: HEK cells (membrane extract)
Put plainly: NMDAR agonist assay, [3H]MK-801 binding, NMDAR2B. The conditions noted are these: for EC50: [3H]MK-801 binding. The protocol:
(§1) (nonequilibrium conditions).
(§2) The baseline value was determined from the best fit curve of the DPM values modeled using the GraphPad program and the log(agonist) vs. response(three parameters) algorithm was then subtracted from all points in the dataset.

In assay [2] the target is T2, NMDAR2B expressing HEK cell membranes (Homo sapiens, UniProt Q13224).
T2 construct: expressed in transfected cells; host or cells: HEK cells (membrane extract)
Put plainly: NMDAR agonist assay, [3H]MK-801 binding, NMDAR2B. As to conditions: 50 μM glutamate; for EC50: [3H]MK-801 binding, read-out: NMDAR2B log EC50 (converted). Here is the method: as §1, §2

Assay [3] addresses T3, NMDAR2A expressing HEK cell membranes (Homo sapiens, UniProt Q12879).
T3 construct: expressed in transfected cells; host or cells: HEK cells (membrane extract)
Briefly: NMDAR agonist assay, [3H]MK-801 binding, NMDAR2A. As to conditions: 50 μM glutamate; relative to 1 mM glycine. The protocol:
as §1, §2

In assay [4] the target is T4, NMDAR2A expressing HEK cell membranes (Homo sapiens, UniProt Q05586+Q12879).
T4 construct: expressed in transfected cells; host or cells: HEK cells (membrane extract)
Briefly: NMDAR agonist assay, [3H]MK-801 binding, NMDAR2A. As to conditions: for EC50: [3H]MK-801 binding; for Emax: relative to 1 mM glycine, read-out: NMDAR2A: % maximal [3H]MK-801 binding relative to 1 mM glycine. The protocol: as §1, §2

In assay [5] the target is T5, NMDAR2D expressing HEK cell membranes (Homo sapiens, UniProt O15399+Q05586).
T5 construct: expressed in transfected cells; host or cells: HEK cells (membrane extract)
Put plainly: NMDAR agonist assay, [3H]MK-801 binding, NMDAR2D. As to conditions: 50 μM glutamate; for EC50: [3H]MK-801 binding, read-out: NMDAR2D: log EC50 (converted); for Emax: relative to 1 mM glycine, read-out: NMDAR2D: % maximal [3H]MK-801 binding relative to 1 mM glycine. Here is the method:
as §1, §2

[6] abbreviates: NMDAR2B: log EC50, 50 μM glutamate.
Where [7] appears, read: NMDAR2A: log EC50, 50 μM glutamate.
Where [8] appears, read: 50 μM glutamate, read-out: NMDAR2B log EC50 (converted).
Where [9] appears, read: 50 μM glutamate, read-out: NMDAR2A: log EC50 (converted).

T5 sequence (O15399 28-1336, other chains not shown): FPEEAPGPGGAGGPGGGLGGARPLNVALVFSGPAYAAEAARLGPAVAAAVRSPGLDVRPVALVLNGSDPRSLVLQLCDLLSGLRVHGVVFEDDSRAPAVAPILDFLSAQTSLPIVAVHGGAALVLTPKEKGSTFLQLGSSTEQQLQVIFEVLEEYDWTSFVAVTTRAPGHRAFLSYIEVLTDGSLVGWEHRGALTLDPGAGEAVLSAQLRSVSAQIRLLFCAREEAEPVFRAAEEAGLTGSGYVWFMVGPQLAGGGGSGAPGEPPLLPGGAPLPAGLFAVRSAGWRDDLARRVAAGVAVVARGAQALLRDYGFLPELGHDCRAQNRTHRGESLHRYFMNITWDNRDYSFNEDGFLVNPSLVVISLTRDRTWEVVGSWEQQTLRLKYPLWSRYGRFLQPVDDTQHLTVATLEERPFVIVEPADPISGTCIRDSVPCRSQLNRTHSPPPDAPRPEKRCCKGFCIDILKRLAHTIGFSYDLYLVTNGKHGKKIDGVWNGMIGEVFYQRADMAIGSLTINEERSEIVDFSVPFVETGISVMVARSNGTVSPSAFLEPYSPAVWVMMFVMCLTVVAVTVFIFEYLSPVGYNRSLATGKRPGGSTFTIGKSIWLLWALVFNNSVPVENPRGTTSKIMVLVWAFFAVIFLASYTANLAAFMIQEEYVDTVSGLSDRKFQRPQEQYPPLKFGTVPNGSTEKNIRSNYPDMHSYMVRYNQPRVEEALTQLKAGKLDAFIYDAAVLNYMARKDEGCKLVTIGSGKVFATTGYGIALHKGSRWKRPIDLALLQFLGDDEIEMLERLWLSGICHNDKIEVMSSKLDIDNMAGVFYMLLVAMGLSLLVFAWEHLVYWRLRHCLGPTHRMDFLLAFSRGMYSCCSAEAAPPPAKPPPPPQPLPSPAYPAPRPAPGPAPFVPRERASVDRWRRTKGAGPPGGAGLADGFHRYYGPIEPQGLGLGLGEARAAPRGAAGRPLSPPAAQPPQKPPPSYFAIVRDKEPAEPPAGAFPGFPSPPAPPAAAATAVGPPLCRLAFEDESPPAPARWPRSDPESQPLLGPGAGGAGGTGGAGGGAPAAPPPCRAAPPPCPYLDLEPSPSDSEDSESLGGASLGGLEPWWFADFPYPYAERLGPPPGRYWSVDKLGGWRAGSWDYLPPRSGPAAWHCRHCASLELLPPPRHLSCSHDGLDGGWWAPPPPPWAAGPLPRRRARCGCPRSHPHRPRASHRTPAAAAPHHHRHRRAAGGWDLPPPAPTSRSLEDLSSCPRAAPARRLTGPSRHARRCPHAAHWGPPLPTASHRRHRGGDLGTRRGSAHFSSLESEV
T3 sequence (Q12879 23-1464, other chains not shown): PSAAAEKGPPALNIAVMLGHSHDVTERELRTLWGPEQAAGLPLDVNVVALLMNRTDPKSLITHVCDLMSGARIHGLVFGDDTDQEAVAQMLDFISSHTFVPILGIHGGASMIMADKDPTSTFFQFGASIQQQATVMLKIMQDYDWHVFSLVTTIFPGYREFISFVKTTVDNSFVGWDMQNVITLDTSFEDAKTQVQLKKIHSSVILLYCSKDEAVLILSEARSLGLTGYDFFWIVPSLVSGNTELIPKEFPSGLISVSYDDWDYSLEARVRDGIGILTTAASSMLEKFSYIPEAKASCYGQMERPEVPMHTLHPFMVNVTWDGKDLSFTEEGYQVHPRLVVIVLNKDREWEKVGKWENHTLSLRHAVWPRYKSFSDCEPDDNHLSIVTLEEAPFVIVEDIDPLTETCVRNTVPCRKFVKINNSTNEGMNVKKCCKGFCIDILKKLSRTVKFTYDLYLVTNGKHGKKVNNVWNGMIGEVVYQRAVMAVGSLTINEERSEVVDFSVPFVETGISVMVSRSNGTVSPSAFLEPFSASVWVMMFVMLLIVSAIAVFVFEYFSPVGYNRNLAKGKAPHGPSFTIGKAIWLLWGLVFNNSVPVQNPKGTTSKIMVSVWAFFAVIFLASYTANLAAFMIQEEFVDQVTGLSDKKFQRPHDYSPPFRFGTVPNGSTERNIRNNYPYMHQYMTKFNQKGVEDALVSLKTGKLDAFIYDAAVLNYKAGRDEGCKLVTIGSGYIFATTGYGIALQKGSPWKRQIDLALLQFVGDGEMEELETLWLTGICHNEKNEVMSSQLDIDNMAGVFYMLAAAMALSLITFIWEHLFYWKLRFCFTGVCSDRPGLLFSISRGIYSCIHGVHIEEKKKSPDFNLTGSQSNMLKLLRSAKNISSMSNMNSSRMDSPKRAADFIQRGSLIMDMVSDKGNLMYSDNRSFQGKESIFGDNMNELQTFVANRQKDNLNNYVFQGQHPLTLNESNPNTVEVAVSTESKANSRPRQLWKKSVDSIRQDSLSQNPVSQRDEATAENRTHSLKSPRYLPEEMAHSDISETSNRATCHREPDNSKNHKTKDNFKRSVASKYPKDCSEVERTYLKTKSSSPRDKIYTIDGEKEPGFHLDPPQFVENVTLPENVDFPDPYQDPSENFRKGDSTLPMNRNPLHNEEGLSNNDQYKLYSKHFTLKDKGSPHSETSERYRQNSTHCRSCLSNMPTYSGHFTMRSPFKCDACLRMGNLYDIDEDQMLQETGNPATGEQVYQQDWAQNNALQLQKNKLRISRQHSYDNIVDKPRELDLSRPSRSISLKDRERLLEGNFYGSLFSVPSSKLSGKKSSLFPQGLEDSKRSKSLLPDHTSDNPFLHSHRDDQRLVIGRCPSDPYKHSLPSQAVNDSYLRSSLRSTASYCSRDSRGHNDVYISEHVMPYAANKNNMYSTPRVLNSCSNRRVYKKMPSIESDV
T4 sequence (Q12879 23-1464, other chains not shown): as above

`CN1C2(CCC13CNC3=O)CNC2=O` (single isomer, unassigned) [AB-1, 5-methyl-2,5,8-triazadispiro[3.1.36.24]undecane-1,7-dione]: the EC50 in assay [1] (setting [6]) was more than 100 nM; in assay [4] (setting [7]), less than 1 nM. For the same compound, the “NMDAR2B: % maximal [3H]MK-801 binding relative to 1 mM glycine” value in assay [2] is “− (−=0)”. Moreover, in assay [3], the “NMDAR2A: % maximal [3H]MK-801 binding relative to 1 mM glycine” value was “+ (<100%=+)”.

With `O=C1NCC12CCC1(CNC1=O)N2` (single isomer, unassigned) [AK, 2,5,8-triazadispiro[3.1.36.24]undecane-1,7-dione], the EC50 in assay [1] (setting [6]) and in assay [4] (setting [7]) was more than 100 nM in each case. Further, in assay [2], the “NMDAR2B: % maximal [3H]MK-801 binding relative to 1 mM glycine” value is “− (−=0)”. In addition, the “NMDAR2A: % maximal [3H]MK-801 binding relative to 1 mM glycine” value in assay [3] is “− (−=0)”.

As for `CC(C)C(=O)N1C(C(=O)N[C@H](C(N)=O)[C@@H](C)O)CCC12CNC2=O` (single isomer, unassigned) [AR], the concentration giving a half-maximal response (EC50) in assay [1] (setting [8]) and in assay [4] (setting [9]) was more than 100 nM each time. In addition, in assay [2], the “NMDAR2B: % maximal [3H]MK-801 binding relative to 1 mM glycine” value is on record as “− (−=0)”. Besides, in assay [3], the “NMDAR2A: % maximal [3H]MK-801 binding relative to 1 mM glycine” value is given as “− (−=0)”.

In the case of `CC(C)(C)OC(=O)N1CC2(CN(OCc3ccccc3)C2=O)CC12CN(OCc1ccccc1)C2=O` (single isomer, unassigned) [AV, tert-butyl 2,8-bis(benzyloxy)-1,7-dioxo-2,8,10-triazadispiro[3.1.36.24]undecane-10-carboxylate], the figures for the half-maximal effective concentration (EC50) in assay [1] (setting [8]) and in assay [4] (setting [9]) were less than 1 nM and more than 100 nM, respectively. Further, the “NMDAR2B: % maximal [3H]MK-801 binding relative to 1 mM glycine” value in assay [2] is recorded as “+ (<100%=+)”. For the same compound, the “NMDAR2A: % maximal [3H]MK-801 binding relative to 1 mM glycine” value in assay [3] was “− (−=0)”.

For the compound `CC(C)(C)OC(=O)N1CC2(CN(OCc3ccccc3)C2=O)CC12CN(OCc1ccccc1)C2=O` (single isomer, unassigned) [AX, tert-butyl 2,8-bis(benzyloxy)-1,7-dioxo-2,8,10-triazadispiro[3.1.36.24]undecane-10-carboxylate], the concentration giving a half-maximal response (EC50) was more than 100 nM in assay [1] (setting [8]) and less than 1 nM in assay [4] (setting [9]). The “NMDAR2B: % maximal [3H]MK-801 binding relative to 1 mM glycine” value in assay [2] was “− (−=0)”. In assay [3], the “NMDAR2A: % maximal [3H]MK-801 binding relative to 1 mM glycine” value was “+ (<100%=+)”.

On to `CC(C)CN1C(C(=O)N[C@H](C(N)=O)[C@@H](C)O)CCC12CNC2=O` (single isomer, unassigned) [BA], for which the EC50 in assay [1] (setting [8]) is more than 100 nM; in assay [4] (setting [9]) it was less than 1 nM; in assay [5] it was less than 1 nM. In addition, the “NMDAR2B: % maximal [3H]MK-801 binding relative to 1 mM glycine” value in assay [2] was “− (−=0)”. Also, the Emax in assay [4] (50 μM glutamate) and in assay [5] was less than 100% throughout.

As to `CC(C)(C)OC(=O)N1C(C(N)=O)CCC12CNC2=O` (single isomer, unassigned) [BE], the EC50 in assay [1] (setting [8]) is more than 100 nM; in assay [5] it was less than 1 nM. In assay [2], the “NMDAR2B: % maximal [3H]MK-801 binding relative to 1 mM glycine” value is “− (−=0)”. Also, the Emax in assay [4] (50 μM glutamate) and in assay [5] was less than 100% in each case.

With `CC(C)(C)OC(=O)N1C(C(N)=O)CCC12CNC2=O` (single isomer, unassigned) [BF], the EC50 in assay [1] (setting [8]) and in assay [4] (setting [9]) was less than 1 nM each time. For the same compound, the “NMDAR2B: % maximal [3H]MK-801 binding relative to 1 mM glycine” value in assay [2] is given as “+ (<100%=+)”. Moreover, in assay [3], the “NMDAR2A: % maximal [3H]MK-801 binding relative to 1 mM glycine” value is given as “+ (<100%=+)”.

For `C[C@@H](O)[C@H](NCC1CCC2(CNC2=O)N1C(=O)OC(C)(C)C)C(=O)N(C)C` (single isomer, unassigned) [BS], the results for the EC50 in assay [1] (setting [8]) and in assay [4] (setting [9]) were less than 1 nM and more than 100 nM, respectively. In assay [2], the “NMDAR2B: % maximal [3H]MK-801 binding relative to 1 mM glycine” value is given as “+ (<100%=+)”. Further, the “NMDAR2A: % maximal [3H]MK-801 binding relative to 1 mM glycine” value in assay [3] is given as “− (−=0)”.

Take `C[C@@H](O)[C@H](NCC1CCC2(CNC2=O)N1C(=O)OC(C)(C)C)C(=O)N(C)C` (single isomer, unassigned) [BT]: the figures for the concentration for a half-maximal effect (EC50) in assay [1] (setting [8]) and in assay [4] (setting [9]) were more than 100 nM and less than 1 nM, respectively. Besides, the “NMDAR2B: % maximal [3H]MK-801 binding relative to 1 mM glycine” value in assay [2] was “− (−=0)”. The “NMDAR2A: % maximal [3H]MK-801 binding relative to 1 mM glycine” value in assay [3] is “+ (<100%=+)”.

For `C[C@@H](O)[C@H](NC1CN(C(=O)OC(C)(C)C)C2(CNC2=O)C1)C(N)=O` (single isomer, unassigned) [CG], the 50% effective concentration (EC50) in assay [1] (setting [8]) was more than 100 nM; in assay [4] (setting [9]) it was less than 1 nM. The Emax in assay [1] (50 μM glutamate, relative to 1 mM glycine, read-out: NMDAR2B: % maximal [3H]MK-801 binding relative to 1 mM glycine) came out at 0%. Further, the “NMDAR2B: % maximal [3H]MK-801 binding relative to 1 mM glycine” value in assay [2] was “− (−=0)”. For the same compound, the “NMDAR2A: % maximal [3H]MK-801 binding relative to 1 mM glycine” value in assay [3] was “+ (<100%=+)”.

Turning to `CC(O)C(C(N)=O)N(C)CC1CCC2(CNC2=O)N1` (single isomer, unassigned) [CV], the EC50 in assay [1] (setting [8]) and in assay [4] (setting [9]) was less than 1 nM throughout. Also, the “NMDAR2B: % maximal [3H]MK-801 binding relative to 1 mM glycine” value in assay [2] was “++ (>100%=++)”. In addition, in assay [3], the “NMDAR2A: % maximal [3H]MK-801 binding relative to 1 mM glycine” value is given as “+ (<100%=+)”.

As for `O=C1NCC12CN(Cc1ccc(F)cc1)C1(CNC1=O)C2` (single isomer, unassigned) [DM, 10-(4-fluorobenzyl)-2,8,10-triazadispiro[3.1.3^6.2^4]undecane-1,7-dione], in assay [2], the half-maximal effective concentration (EC50) was less than 1 nM and the “NMDAR2B: % maximal [3H]MK-801 binding relative to 1 mM glycine” value is on record as “+ (<100%=+)”. For the same compound, the “NMDAR2A: % maximal [3H]MK-801 binding relative to 1 mM glycine” value in assay [3] is listed as “+ (<100%=+)”. Besides, in assay [4] (setting [9]), the 50% effective concentration (EC50) was less than 1 nM.

Turning to `O=C1NCC12CN(Cc1ccc(F)cc1)C1(CNC1=O)C2` (single isomer, unassigned) [DN, 10-(4-fluorobenzyl)-2,8,10-triazadispiro[3.1.3^6.2^4]undecane-1,7-dione], in assay [2], the concentration giving a half-maximal response (EC50) was less than 1 nM and the “NMDAR2B: % maximal [3H]MK-801 binding relative to 1 mM glycine” value was “+ (<100%=+)”. In assay [3], the “NMDAR2A: % maximal [3H]MK-801 binding relative to 1 mM glycine” value was “+ (<100%=+)”. In addition, the half-maximal effective concentration (EC50) in assay [4] (setting [9]) was less than 1 nM.

With `O=C1NCC12CN(Cc1ccccc1)C1(CNC1=O)C2` (single isomer, unassigned) [DO, 10-benzyl-2,8,10-triazadispiro[3.1.3^6.2^4]undecane-1,7-dione], the figures for the concentration giving a half-maximal response (EC50) in assay [1] (setting [8]) and in assay [4] (setting [9]) were more than 100 nM and less than 1 nM, respectively. Besides, in assay [2], the “NMDAR2B: % maximal [3H]MK-801 binding relative to 1 mM glycine” value is “− (−=0)”. Also, the “NMDAR2A: % maximal [3H]MK-801 binding relative to 1 mM glycine” value in assay [3] was “+ (<100%=+)”.

Consider `O=C1NCC12CN(Cc1ccccc1)C1(CNC1=O)C2` (single isomer, unassigned) [DP, 10-benzyl-2,8,10-triazadispiro[3.1.3^6.2^4]undecane-1,7-dione], for which the EC50 in assay [1] (setting [8]) and in assay [4] (setting [9]) was less than 1 nM in each case. Further, in assay [2], the “NMDAR2B: % maximal [3H]MK-801 binding relative to 1 mM glycine” value was “++ (>100%=++)”. For the same compound, the “NMDAR2A: % maximal [3H]MK-801 binding relative to 1 mM glycine” value in assay [3] was “+ (<100%=+)”.

Take `O=C1NCC12CN(Cc1ccccc1)C1(CNC1=O)C2` (single isomer, unassigned) [DQ, 10-benzyl-2,8,10-triazadispiro[3.1.3^6.2^4]undecane-1,7-dione]: the EC50 in assay [1] (setting [8]) is less than 1 nM; in assay [4] (setting [9]), more than 100 nM. In addition, the “NMDAR2B: % maximal [3H]MK-801 binding relative to 1 mM glycine” value in assay [2] is reported as “+ (<100%=+)”. The “NMDAR2A: % maximal [3H]MK-801 binding relative to 1 mM glycine” value in assay [3] is given as “− (−=0)”.

As for `O=C1NCC12CN(Cc1ccccc1)C1(CNC1=O)C2` (single isomer, unassigned) [DR, 10-benzyl-2,8,10-triazadispiro[3.1.3^6.2^4]undecane-1,7-dione], the EC50 in assay [1] (setting [8]) and in assay [4] (setting [9]) was less than 1 nM throughout. For the same compound, the “NMDAR2B: % maximal [3H]MK-801 binding relative to 1 mM glycine” value in assay [2] was “+ (<100%=+)”. Besides, the “NMDAR2A: % maximal [3H]MK-801 binding relative to 1 mM glycine” value in assay [3] was “+ (<100%=+)”.

One may read the EC50 as the concentration needed to bring the measured effect to its halfway point.
